One series concerns the target T1, IL-23R (Homo sapiens, UniProt Q5VWK5).
T1 construct: host or cells: HEK293
T1 sequence (Q5VWK5 24-629): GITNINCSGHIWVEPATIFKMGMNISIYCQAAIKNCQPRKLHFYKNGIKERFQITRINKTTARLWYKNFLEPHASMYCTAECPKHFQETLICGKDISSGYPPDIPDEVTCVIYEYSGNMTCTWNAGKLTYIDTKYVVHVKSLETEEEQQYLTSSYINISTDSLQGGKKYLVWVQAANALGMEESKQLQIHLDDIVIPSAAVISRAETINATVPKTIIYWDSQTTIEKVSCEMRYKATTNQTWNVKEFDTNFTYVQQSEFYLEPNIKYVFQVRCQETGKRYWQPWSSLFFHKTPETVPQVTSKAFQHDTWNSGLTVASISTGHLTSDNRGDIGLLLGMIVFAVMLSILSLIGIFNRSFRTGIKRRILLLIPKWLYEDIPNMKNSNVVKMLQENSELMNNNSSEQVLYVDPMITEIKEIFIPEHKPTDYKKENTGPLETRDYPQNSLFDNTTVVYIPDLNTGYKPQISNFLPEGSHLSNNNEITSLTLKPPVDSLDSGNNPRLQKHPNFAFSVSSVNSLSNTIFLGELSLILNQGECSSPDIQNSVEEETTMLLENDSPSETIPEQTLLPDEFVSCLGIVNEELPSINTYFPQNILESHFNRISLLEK
Kind of series: IL23R Reporter Assay. It counts as cell-based. The note with it: HEK293 cells containing IL-23R, IL-12RP1 and STAT-inducible firefly luciferase reporter; 10 ng/mL IL-23 (EC90); 5 h at 37° C.; read-out: IL23R Reporter Assay. (In general: A reporter such as luciferase makes a cellular process visible.)

A short description of series [1]: Exposed Polar Surface Area (EPSA). It counts as physicochemical. To be noted: SFC on Chirex 3014 column; sample 1 mM DMSO stock; read-out: EPSA. In outline: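 SFC retention on a Chirex 3014 (S)-valine/(R)-1-(α-naphthyl)ethylamine column, 35 °C, CO2 with MeOH (20 mM ammonium formate) gradient 5–60% at 20%/min, 14 MPa outlet. Retention times converted to EPSA (Å^2) via linear calibration with 8 standards; samples from 1 mM DMSO stock, run in duplicate.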

SMILES strings stand for the structures. Positions of bridges follow the written chain, without caps; N, C: chain ends. Non-standard residues stand in square brackets, D forms with d. Residues, ends and D or L forms follow the SMILES beside them. *: point of attachment. Me3N+(CH2)2O(CH2)2O(CH2)2CO = C[N+](C)(C)CCOCCOCCC(=O)*; NH(CH2CH2O)2CH2CH2NMe3+ = C[N+](C)(C)CCOCCOCCN*; Trp(7-Me) = Cc1cccc2c(C[C@H](N)C(=O)O)c[nH]c12; Hexanoyl(6-NMe3+) = C[N+](C)(C)CCCCCC(=O)*; dLys(Me3) = C[N+](C)(C)CCCC[C@@H](N)C(=O)O; 3Pal(5-Me) = Cc1cncc(C[C@H](N)C(=O)O)c1; 2Nal = N[C@@H](Cc1ccc2ccccc2c1)C(=O)O; AEF = NCCOc1ccc(C[C@H](N)C(=O)O)cc1; 3Pal = N[C@@H](Cc1cccnc1)C(=O)O; X54 = CC(=O)N(CC[N+](C)(C)C)CC*; Lys(Me) = CNCCCC[C@H](N)C(=O)O; Pen = CC(C)(S)[C@H](N)C(=O)O; X55 = OC1(C(F)(F)F)CCN(*)CC1; X11 = N=C(N)NCCOCCOCCC(=O)*; X4 = COCCOCCCN(CCCOCCOC)CC*; Thp = NC1(C(=O)O)CCOCC1; Dap = NC[C@H](N)C(=O)O; X3 = C[N+](C)(C)CCCCC*; Me2NCH2CH2 = CN(C)CC*; Sar = CNCC(=O)O; X58 = NCCCCC*

As to `CNC(=O)C[C@@H]1NC(=O)[C@@H](NC(C)=O)C(C)(C)SSC(C)(C)[C@@H](C(=O)N[C@@H](Cc2ccc(OCCNC(C)=O)cc2)C(=O)N[C@@H](Cc2ccc3ccccc3c2)C(=O)NC2(C(=O)N[C@@H](CCCCN(C)C(C)=O)C(=O)N[C@@H](CC(N)=O)C(=O)N[C@@H](Cc3cccnc3)C(=O)N(C)CC(N)=O)CCOCC2)NC(=O)[C@H](CCCCN(C)C(C)=O)NC(=O)[C@H](Cc2c[nH]c3c(C)cccc23)NC(=O)[C@H]([C@@H](C)O)NC1=O` [compound 58] (Ac-[Pen]D(NHMe)T[Trp(7-Me)][Lys(Me)](Ac)[Pen][AEF](Ac)[2Nal][Thp][Lys(Me)](Ac)N[3Pal][Sar]-NH2; disulfide 1-6), on IL-23R, the IC50 is 4.3 nM. Moreover, the EPSA in series [1] was found to be 154 A^2.
On to `COCCOCCCN(CCCOCCOC)CCOc1ccc(C[C@H](NC(=O)[C@H]2NC(=O)[C@H](CCCCN(C)C(C)=O)NC(=O)[C@H](Cc3c[nH]c4c(C)cccc34)NC(=O)[C@H]([C@@H](C)O)NC(=O)[C@H](CC(=O)N(C)C)NC(=O)[C@@H](NC(=O)CCOCCOCC[N+](C)(C)C)C(C)(C)SSC2(C)C)C(=O)N[C@@H](Cc2ccc3ccccc3c2)C(=O)NC2(C(=O)N[C@@H](CCCCN(C)C(C)=O)C(=O)N[C@@H](CC(N)=O)C(=O)N[C@@H](Cc3cccnc3)C(=O)N(C)CC(=O)N(C)C)CCOCC2)cc1` [compound 203, cPEG3aCO-Pen(3)-N(N(Me)2)-T-7MeW-K(NMeAc)-Pen(3)-AEF(BisMEP))-2Nal-THP-K(NMeAc)-N-3Pya-Sar-CON(Me)2] ({Me3N+(CH2)2O(CH2)2O(CH2)2CO}-[Pen]D(NMe2)T[Trp(7-Me)][Lys(Me)](Ac)[Pen]Y(X4)[2Nal][Thp][Lys(Me)](Ac)N[3Pal][Sar]-NMe2; disulfide 1-6), for which the IC50 on IL-23R turned out to be 1.6 nM. In addition, the EPSA in series [1] is 135 A^2.
For `CC(=O)N(C)CCCC[C@@H]1NC(=O)[C@H](Cc2c[nH]c3c(C)cccc23)NC(=O)[C@H]([C@@H](C)O)NC(=O)[C@H](CC(=O)N(C)C)NC(=O)[C@@H](NC(=O)CCOCCOCCNC(=N)N)C(C)(C)SSC(C)(C)[C@@H](C(=O)N[C@@H](Cc2ccc(OCCCCC[N+](C)(C)C)cc2)C(=O)N[C@@H](Cc2ccc3ccccc3c2)C(=O)NC2(C(=O)N[C@@H](CCCCN(C)C(C)=O)C(=O)N[C@@H](CC(N)=O)C(=O)N[C@@H](Cc3cccnc3)C(=O)N(C)CC(=O)N(C)C)CCOCC2)NC1=O` [compound 391, cPEG3gCO-Pen(3)-N(N(Me)2)-T-7MeW-K(NMeAc)-Pen(3)-TMAPF-2Nal-THP-K(NMeAc)-N-3Pya-Sar-CON(Me)2] (X11-[Pen]D(NMe2)T[Trp(7-Me)][Lys(Me)](Ac)[Pen]Y(X3)[2Nal][Thp][Lys(Me)](Ac)N[3Pal][Sar]-NMe2; disulfide 1-6) the same measures were 1.5 nM and 158 A^2.
For `CC(=O)NCCCC[C@@H]1NC(=O)[C@H](Cc2c[nH]c3c(-c4cccc(NC(C)=O)c4)cccc23)NC(=O)[C@H]([C@@H](C)O)NC(=O)[C@H](CC(N)=O)NC(=O)[C@@H](NC(C)=O)C(C)(C)SSC(C)(C)[C@@H](C(=O)N[C@@H](Cc2ccc(OCCNC(=N)N)cc2)C(=O)N[C@@H](Cc2ccc3ccccc3c2)C(=O)NC2(C(=O)N[C@@H](CCCCN(C)C(C)=O)C(=O)N[C@@H](CC(N)=O)C(=O)N[C@@H](Cc3cccnc3)C(=O)N(C)CC(N)=O)CCOCC2)NC1=O` [compound 515, MeCO-Pen(3)-N-T-7(3NAcPh)W-K(Ac)-Pen(3)-AEF(G)-2Nal-THP-K(NMeAc)-N-3Pya-Sar-CONH2] the same measures were 3.8 nM and 197 A^2.
On to `CC(=O)NCCCC[C@@H]1NC(=O)[C@H](Cc2c[nH]c3c(C)cccc23)NC(=O)[C@H]([C@@H](C)O)NC(=O)[C@H](CC(N)=O)NC(=O)[C@@H](NC(=O)CCCCC[N+](C)(C)C)C(C)(C)SSC(C)(C)[C@@H](C(=O)N[C@@H](Cc2ccc(OCCN(C)C)cc2)C(=O)N[C@@H](Cc2ccc3ccccc3c2)C(=O)NC2(C(=O)N[C@@H](CNC(C)=O)C(=O)N[C@@H](CC(N)=O)C(=O)N[C@@H](Cc3cccnc3)C(=O)N(C)CC(N)=O)CCOCC2)NC1=O` [compound 103] ({Hexanoyl(6-NMe3+)}-[Pen]NT[Trp(7-Me)]K(Ac)[Pen]Y(Me2NCH2CH2)[2Nal][Thp][Dap](Ac)N[3Pal][Sar]-NH2; disulfide 1-6 (inferred)), for which the IC50 on IL-23R was determined as 5.4 nM. Further, the EPSA in series [1] stood at 158 A^2.
On the same counts, the results for `CC(=O)N(C)CCCC[C@@H]1NC(=O)[C@H](Cc2c[nH]c3c(C)cccc23)NC(=O)[C@H]([C@@H](C)O)NC(=O)[C@H](CC(=O)N(C)C)NC(=O)[C@@H](NC(=O)CCOCCOCC[N+](C)(C)C)C(C)(C)SSC(C)(C)[C@@H](C(=O)N[C@@H](Cc2ccc(OCCN(CC[N+](C)(C)C)C(C)=O)cc2)C(=O)N[C@@H](Cc2ccc3ccccc3c2)C(=O)NC2(C(=O)N[C@@H](CCCCN(C)C(C)=O)C(=O)N[C@@H](CC(N)=O)C(=O)N[C@@H](Cc3cccnc3)C(=O)N(C)CC(=O)N(C)C)CCOCC2)NC1=O` [compound 207, cPEG3aCO-Pen(3)-N(N(Me)2)-T-7MeW-K(NMeAc)-Pen(3)-AEF(AcCh)-2Nal-THP-K(NMeAc)-N-3Pya-Sar-CON(Me)2] ({Me3N+(CH2)2O(CH2)2O(CH2)2CO}-[Pen]D(NMe2)T[Trp(7-Me)][Lys(Me)](Ac)[Pen]Y(X54)[2Nal][Thp][Lys(Me)](Ac)N[3Pal][Sar]-NMe2; disulfide 1-6) are 3.2 nM and 139 A^2.
On the same counts, the results for `CC(=O)NCCCC[C@@H]1NC(=O)[C@H](Cc2c[nH]c3c(C)cccc23)NC(=O)[C@H]([C@@H](C)O)NC(=O)[C@H](CC(N)=O)NC(=O)[C@@H](NC(=O)[C@@H](CCCC[N+](C)(C)C)NC(C)=O)C(C)(C)SSC(C)(C)[C@@H](C(=O)N[C@@H](Cc2ccc(OCCN)cc2)C(=O)N[C@@H](Cc2ccc3ccccc3c2)C(=O)NC2(C(=O)N[C@@H](CCCCNC(C)=O)C(=O)N[C@@H](CC(N)=O)C(=O)N[C@@H](Cc3cncc(C)c3)C(=O)N(C)CC(N)=O)CCOCC2)NC1=O` [compound 533, MeCO-k(Me)3-Pen(3)-N-T-7MeW-K(Ac)-Pen(3)-AEF-2Nal-THP-K(Ac)-N-5MePyridinAla-Sar-CONH2] (Ac-[dLys(Me3)][Pen]NT[Trp(7-Me)]K(Ac)[Pen][AEF][2Nal][Thp]K(Ac)N[3Pal(5-Me)][Sar]-NH2; disulfide 2-7) are 1.6 nM and 170 A^2.
On the same counts, the results for `CC(=O)N(C)CCCC[C@@H]1NC(=O)[C@H](Cc2c[nH]c3c(C)cccc23)NC(=O)[C@H]([C@@H](C)O)NC(=O)[C@H](CC(=O)N(C)C)NC(=O)[C@@H](NC(=O)CCOCCOCC[N+](C)(C)C)C(C)(C)SSC(C)(C)[C@@H](C(=O)N[C@@H](Cc2ccc(OCCCCC[N+](C)(C)C)cc2)C(=O)N[C@@H](Cc2ccc3ccccc3c2)C(=O)NC2(C(=O)N[C@@H](CCCCN(C)C(C)=O)C(=O)N[C@@H](CC(N)=O)C(=O)N[C@@H](Cc3cccnc3)C(=O)N(C)CC(=O)NCCOCCOCC[N+](C)(C)C)CCOCC2)NC1=O` [compound 220, cPEG3aCO-Pen(3)-N(N(Me)2)-T-7MeW-K(NMeAc)-Pen(3)-TMAPF-2Nal-THP-K(NMeAc)-N-3Pya-Sar-CO(NHPEG3a)] ({Me3N+(CH2)2O(CH2)2O(CH2)2CO}-[Pen]D(NMe2)T[Trp(7-Me)][Lys(Me)](Ac)[Pen]Y(X3)[2Nal][Thp][Lys(Me)](Ac)N[3Pal][Sar]-{NH(CH2CH2O)2CH2CH2NMe3+}; disulfide 1-6) are 1.4 nM and 142 A^2.
In the case of `CC(=O)NCCCC[C@@H]1NC(=O)[C@H](Cc2c[nH]c3c(C)cccc23)NC(=O)[C@H]([C@@H](C)O)NC(=O)[C@H](CC(N)=O)NC(=O)[C@@H](NC(C)=O)C(C)(C)SSC(C)(C)[C@@H](C(=O)N[C@@H](Cc2ccc(OCCN)cc2)C(=O)N[C@@H](Cc2ccc3ccccc3c2)C(=O)NC2(C(=O)N[C@@H](CCC(=O)O)C(=O)N[C@@H](CC(N)=O)C(=O)N[C@@H](Cc3cccnc3)C(=O)N(C)CC(=O)N3CCC(O)(C(F)(F)F)CC3)CCOCC2)NC1=O` [compound 135] (Ac-[Pen]NT[Trp(7-Me)]K(Ac)[Pen][AEF][2Nal][Thp]EN[3Pal][Sar]-X55; disulfide 1-6 (inferred)), the IC50 on IL-23R was found to be 3.7 nM. Moreover, the EPSA in series [1] was 171 A^2.
As to `CC(=O)N(C)CCCC[C@@H]1NC(=O)[C@H](Cc2c[nH]c3c(C)cccc23)NC(=O)[C@H]([C@@H](C)O)NC(=O)[C@H](CC(=O)N(C)C)NC(=O)[C@@H](NC(=O)CCOCCOCC[N+](C)(C)C)C(C)(C)SSC(C)(C)[C@@H](C(=O)N[C@@H](Cc2ccc(OCCCCCN)cc2)C(=O)N[C@@H](Cc2ccc3ccccc3c2)C(=O)NC2(C(=O)N[C@@H](CCCCN(C)C(C)=O)C(=O)N[C@@H](CC(N)=O)C(=O)N[C@@H](Cc3cccnc3)C(=O)N(C)CC(=O)N(C)C)CCOCC2)NC1=O` [compound 528, cPEG3aCO-Pen(3)-N(N(Me)2)-T-7MeW-K(NMeAc)-Pen(3)-APF-2Nal-THP-K(NMeAc)-N-3Pya-Sar-CON(Me)2] ({Me3N+(CH2)2O(CH2)2O(CH2)2CO}-[Pen]D(NMe2)T[Trp(7-Me)][Lys(Me)](Ac)[Pen]Y(X58)[2Nal][Thp][Lys(Me)](Ac)N[3Pal][Sar]-NMe2; disulfide 1-6), on IL-23R, the IC50 was determined as 3.8 nM. Also, the EPSA in series [1] turned out to be 163 A^2.

For the origin of these results see US20260022143A1, “Cyclic Peptide Inhibitors of IL-23” (JANSSEN PHARMACEUTICA NV, priority 2022, published 2026).
